Here are results for 5 molecules from US4350699A, “Pyridylalkoxysulfinyl derivatives of carbamate esters” (priority 1981, dated 1982).

The subject of one data set is House Flies. The conditions noted are these: for toxicity against house flies (in words): judged from LD50 of Table I; for House Flies LD50: topical on the notum, 1 μl acetone solution, 24 hours. Here is the method:
(§1) Representative compounds of the pyridylalkoxysulfinyl derivatives of carbamate esters of the invention were tested for insecticidal activity against house flies and tobacco cutworms, and for mammalian toxicity against mice.
In the test for houseflies, stock 1% concentrated solutions of each of the test compounds and the commercially related carbamate ester insecticide, methomyl, were made in acetone, and such solutions were diluted with acetone to a concentration of 0.001-0.1%. House flies were treated topically on the notum by 1 μl of each of the diluted acetone solutions and percent mortality was counted 24 hours after application.

The test system of the next data set is tobacco cutworms. Description: test against tobacco cutworms (3rd instar larvae), cabbage leaf dip, mortality counted 72 hours after the treatment. The note with it: for mortality at 100 ppm / mortality at 500 ppm: foliar, leaf dip, 72 hours. It is filed as in vivo. Here is the method:
In the test against tobacco cutworms, aqueous solutions containing each toxicant at 100 and 500 ppm and an emulsifying agent, Shingramin, at 0.03% were prepared. The composition of Shingramin is understood to consist of 20% of polyoxyethylene dodecyl ether and polyoxyethylene alkylaryl ether, 12% ligninsulfonates and 68% inert solvents, by weight. A cabbage leaf was dipped into each of these solutions for 30 seconds, and put in a paper cup of 8 cm diameter. Ten tobacco cutworms (3rd instar larvae) were released onto the leaf. Two leaves were used for each dilution. Mortality of the insects was counted 72 hours after the treatment.

A further data set in a line: in vivo. The note with it: mouse, in vivo, po. Here is the method: as §1
(§2) Mammalian toxicity was determined against Swiss white mice. The test compound was applied orally using propylene glycol as the carrier.

The test system of a further data set is Mice. Description: in vivo. The note with it: compared with parent carbamate (methomyl or MIP). Here is the method: as §1, §2

A word on the mortality: it is the share of the test organisms that died. Low values mean a weak lethal effect, high ones a strong lethal effect. What is called LD50 is the dose at which mortality reaches 50%. Lower therefore signals a more toxic substance. In the case of `CSC(C)=NOC(=O)N(C)S(=O)OCc1ccccn1` (stereo not shown) [I, S-methyl N-[N'-methyl-N'-(2-pyridylmethoxy)-sulfinylcarbamoyloxy] thioacetimidate], in the data set with House Flies, the “toxicity against house flies (in words)” value is given as “good toxicity” and the “House Flies LD50” value stood at 7.0 µg/g. In addition, in the data set with tobacco cutworms (compared with methomyl), the “potency for tobacco cutworms (in words)” value is listed as “not as potent as methomyl”. In addition, in the data set with tobacco cutworms, the mortality at 100 ppm turned out to be 5% and the mortality at 500 ppm came to 65%. The LD50 in “in vivo” is 85 mg/kg. Further, in the data set on Mice, the “mammalian toxicity (in words)” value is reported as “low”.
Consider `CSC(C)=NOC(=O)N(C)S(=O)OCc1cccnc1` (stereo not shown) [III, S-methyl N-[N'-methyl-N'-(3-pyridylmethoxy)sulfinylcarbamoyloxy]-thioacetimidate], for which, in the data set on House Flies, the “toxicity against house flies (in words)” value is “good toxicity” and the “House Flies LD50” value came out at 5.8 µg/g. In addition, in the data set with tobacco cutworms, the mortality at 100 ppm was determined as 85% and the mortality at 500 ppm stood at 100%. Besides, the LD50 in the data set “in vivo” was 96 mg/kg. For the same molecule, in the data set on Mice, the “mammalian toxicity (in words)” value is on record as “low”.
With `CC(C)c1cccc(OC(=O)N(C)S(=O)OCc2ccccn2)c1` (stereo not shown) [IX, 3-Isopropylphenyl N-(2-pyridylmethoxysulfinyl)-N-methylcarbamate], in the data set on House Flies, the “toxicity against house flies (in words)” value is reported as “good toxicity” and the “House Flies LD50” value stood at 111.5 µg/g. The molecule further gave an LD50 in “in vivo” of 105 mg/kg. The “mammalian toxicity (in words)” value in the data set with Mice is recorded as “substantially lower mammalian toxicity”.
With `CNC(=O)Oc1cccc(C(C)C)c1` [MIP, reference compound], the “mammalian toxicity (in words)” value in the data set on Mice is “much higher mammalian toxicity”.
For `CNC(=O)ON=C(C)SC` [methomyl, reference compound], in the data set on House Flies, the “House Flies LD50” value was 3.7 µg/g. For the same molecule, in the data set with tobacco cutworms, the mortality at 100 ppm came to 100% and the mortality at 500 ppm stood at 100%. In the data set with Mice, the “mammalian toxicity (in words)” value is “much higher toxicity”.
